Where a name gives a salt, the structure may show the parent alone. Read-outs that look alike come from different tables or passages of the source.
Legend:
Assay in all cases: In Vitro Anti-Bacterial Activity Test (MIC, agar dilution)
Format in all cases: cell-based
[1] = system: Escherichia coli DC0; details: Muller-Hinton agar, 37° C., 18 hours, read-out: MIC
Procedure, shortened: (§1)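 MIC was determined by agar dilution on Mueller-Hinton agar. Each strain was inoculated at 10^7 C.F.U./ml, and growth was observed after 18 hours at 37° C, with ciprofloxacin as control agent.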

[2] = system: Pseudomonas aeruginosa 1771
Procedure, shortened: as §1

[3] = system: Salmonella typhimurium; details: Salmonella enterica
Procedure, shortened: as §1

[4] = system: Klebsiella aerogenes 1522E; details: Klebsiella aerogenes, 1522E, 18 h, Klebsiella aerogenes 1522E; Muller-Hinton agar, 37° C., 18 hours; read-out: MIC
Procedure, shortened: as §1

[5] = system: Escherichia coli TEM; details: Escherichia coli, 18 h, Muller-Hinton agar, 37° C.
Procedure, shortened: (§2)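 Agar dilution on Muller-Hinton agar; strains inoculated at 10^7 C.F.U./ml, incubated at 37° C. for 18 hours, then scored for visible growth. MIC taken as the lowest concentration preventing growth; ciprofloxacin served as control agent.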

[6] = system: Escherichia coli DC2
Procedure, shortened: as §1

[7] = system: Enterobacter cloacae 1321E
Procedure, shortened: as §1

[8] = system: Pseudomonas aeruginosa 9027; details: Muller-Hinton agar, 37° C., 18 hours, read-out: MIC
Procedure, shortened: as §1

[9] = system: Pseudomonas aeruginosa 1592E; details: Muller-Hinton agar, 37° C., 18 hours, read-out: MIC
Procedure, shortened: as §1

[10] = system: Staphylococcus aureus 285; details: Staphylococcus aureus, 285, 18 h, Staphylococcus aureus 285; Muller-Hinton agar, 37° C., 18 hours; read-out: MIC
Procedure, shortened: as §1

[11] = system: Staphylococcus aureus SG511; details: Staphylococcus aureus SG511; Muller-Hinton agar, 37° C., 18 hours; read-out: MIC
Procedure, shortened: as §1

[12] = system: Streptococcus faecium MD8b; details: Enterococcus faecium, Muller-Hinton agar, 37° C., 18 hours, read-out: MIC
Procedure, shortened: as §1

[13] = system: Escherichia coli 1507E; details: Muller-Hinton agar, 37° C.
Procedure, shortened: as §1

[14] = system: Streptococcus pyogenes 308A; details: Muller-Hinton agar, 37° C., 18 hours, read-out: MIC
Procedure, shortened: as §1

[15] = system: Streptococcus pyogenes 77A
Procedure, shortened: as §1

[16] = system: Enterobacter cloacae P99; details: Enterobacter cloacae, P99, 18 h
Procedure, shortened: as §2

[17] = system: Pseudomonas aeruginosa 1771M; details: Pseudomonas aeruginosa, 1771M, 18 h, Muller-Hinton agar, 37° C.
Procedure, shortened: as §1

[18] = system: Staphylococcus aureus 503; details: Staphylococcus aureus 503; Muller-Hinton agar, 37° C., 18 hours; read-out: MIC
Procedure, shortened: as §1

[19] = system: Escherichia coli 078
Procedure, shortened: as §1

[20] = system: Klebsiella oxytoca 1082E
Procedure, shortened: as §1

[21] = Pseudomonas aeruginosa 1771, Muller-Hinton agar, 37° C., 18 hours, read-out: MIC
[22] = Salmonella typhimurium, Muller-Hinton agar, 37° C., 18 hours, read-out: MIC
[23] = Enterobacter cloacae 1321E, Muller-Hinton agar, 37° C., 18 hours, read-out: MIC
[24] = Streptococcus pyogenes 77A, Muller-Hinton agar, 37° C., 18 hours, read-out: MIC
[25] = Klebsiella oxytoca 1082E, Muller-Hinton agar, 37° C., 18 hours, read-out: MIC
[26] = Klebsiella oxytoca, 1082E, 18 h

SMILES | MIC [1] | MIC [2, 21] | MIC [3, 22] | MIC [4] | MIC [5] | MIC ([6]; Escherichia coli, DC2, 18 h) | MIC [7, 23] | MIC [8] | MIC [9] | MIC [10] | MIC [11] | MIC [12] | MIC ([13]; Escherichia coli, 1507E, 18 h) | MIC [14] | MIC [15, 24] | MIC [16] | MIC [17] | MIC [18] | MIC [20, 25] | MIC ([19]; Escherichia coli, 078, 18 h) | further results
CCOC(=O)C(C(=O)OCC)C(=O)c1cn(C2CC2)c2c(Cl)c(N3CC=C(CNC)C3)c(F)cc2c1=O [Example 28, 1-cyclopropyl-6-fluoro-8-chloro-7-(3-methylaminomethyl-2,5-dihydropyrrol-1-yl)-3-(2,2-diethoxycarbonylacetyl)-1,4-dihydro-4-oxoquinoline hydrochloride] | 0.195 µg/mL | 0.781 µg/mL | 0.013 µg/mL | 0.013 µg/mL | 0.013 µg/mL | 0.049 µg/mL | < 0.002 µg/mL | 0.781 µg/mL | 0.391 µg/mL | 0.007 µg/mL | 0.004 µg/mL | 0.049 µg/mL | 0.013 µg/mL | 0.098 µg/mL | 0.049 µg/mL | < 0.002 µg/mL | 0.195 µg/mL | < 0.002 µg/mL | 0.007 µg/mL | – | MIC ([19]; Escherichia coli 078, Muller-Hinton agar, 37° C., 18 hours, read-out: MIC): < 0.002 µg/mL
CCOC(=O)CC(=O)c1cn(C2CC2)c2c(Cl)c(N3CC=C(CNC)C3)c(F)cc2c1=O [Example 29, 1-cyclopropyl-6-fluoro-8-chloro-7-(3-methylaminomethyl-2,5-dihydropyrrol-1-yl)-3-(2-ethoxycarbonylacetyl)-1,4-dihydro-4-oxoquinoline hydrochloride] | 0.195 µg/mL | 1.56 µg/mL | 0.391 µg/mL | 0.013 µg/mL | 0.013 µg/mL | 0.098 µg/mL | – | 1.56 µg/mL | 0.781 µg/mL | 0.049 µg/mL | 0.013 µg/mL | 0.098 µg/mL | 0.049 µg/mL | 0.391 µg/mL | 0.098 µg/mL | 0.013 µg/mL | 0.391 µg/mL | 0.013 µg/mL | 0.049 µg/mL | 0.013 µg/mL | MIC ([7]; Enterobacter cloacae, 1321E, 18 h): 0.007 µg/mL
CCn1cc(C(=O)C[N+](=O)[O-])c(=O)c2cc(F)c(N3CCC(N)C3)c(F)c21 (stereo not drawn) [Example 30, 1-ethyl-6,8-difluoro-7-(3-aminopyrrolidin-1-yl)-3-(2-nitroacetyl)-1,4-dihydro-4-oxoquinoline hydrochloride] | 0.781 µg/mL | – | 0.781 µg/mL | 0.098 µg/mL | 0.391 µg/mL | 0.195 µg/mL | 0.049 µg/mL | 0.781 µg/mL | 0.781 µg/mL | 0.195 µg/mL | 0.195 µg/mL | 1.56 µg/mL | 0.391 µg/mL | 1.56 µg/mL | 1.56 µg/mL | 0.049 µg/mL | 0.195 µg/mL | 0.195 µg/mL | – | 0.049 µg/mL | MIC ([2]; Pseudomonas aeruginosa, 1771, 18 h): 0.391 µg/mL; MIC [20, 26]: 0.391 µg/mL
NC1CCN(c2c(F)cc3c(=O)c(C(=O)C[N+](=O)[O-])cn(CCF)c3c2F)C1 (stereo not drawn) [Example 31, 1-(2-fluoroethyl)-6,8-difluoro-7-(3-aminopyrrolidin-1-yl)-3-(2-nitroacetyl)-1,4-dihydro-4-oxoquinoline hydrochloride] | 0.195 µg/mL | 0.781 µg/mL | 0.391 µg/mL | 0.098 µg/mL | 0.195 µg/mL | 0.391 µg/mL | 0.049 µg/mL | 0.781 µg/mL | 0.781 µg/mL | 0.391 µg/mL | 0.781 µg/mL | 0.781 µg/mL | – | 3.12 µg/mL | 1.56 µg/mL | 0.098 µg/mL | 0.391 µg/mL | 0.391 µg/mL | – | 0.391 µg/mL | MIC ([13]; 18 hours, read-out: MIC): 0.198 µg/mL; MIC [20, 26]: 0.195 µg/mL
CS(=O)(=O)CC(=O)c1cn(C2CC2)c2c(Cl)c(N3CCC(N)C3)c(F)cc2c1=O (stereo not drawn) [Example 33, 1-cyclopropyl-6-fluoro-8-chloro-7-(3-aminopyrrolidin-1-yl)-3-(2-methanesulfonylacetyl)-1,4-dihydro-4-oxoquinoline hydrochloride] | 0.195 µg/mL | 1.56 µg/mL | 0.781 µg/mL | 0.391 µg/mL | 0.098 µg/mL | 0.098 µg/mL | 0.098 µg/mL | 1.56 µg/mL | 1.56 µg/mL | 1.56 µg/mL | 1.56 µg/mL | 6.25 µg/mL | 0.195 µg/mL | 3.12 µg/mL | 3.12 µg/mL | 0.195 µg/mL | 0.781 µg/mL | 0.781 µg/mL | 0.391 µg/mL | 0.195 µg/mL | –
CCOC(=O)C(C(=O)OCC)C(=O)c1cn(C2CC2)c2c(Cl)c(N3CC4=C(CNC4)C3)c(F)cc2c1=O [Example 36, 1-cyclopropyl-6-fluoro-8-chloro-7-(3,7-diazabicyclo[3.3.0]oct-1,5-en-3-yl)-3-(2,2-diethoxycarbonylacetyl)-1,4-dihydro-4-oxoquinoline hydrochloride] | 0.195 µg/mL | 0.781 µg/mL | 0.025 µg/mL | 0.025 µg/mL | 0.025 µg/mL | 0.049 µg/mL | 0.025 µg/mL | 1.56 µg/mL | 0.781 µg/mL | 0.049 µg/mL | 0.025 µg/mL | 0.195 µg/mL | 0.025 µg/mL | 0.391 µg/mL | 0.098 µg/mL | 0.025 µg/mL | 0.195 µg/mL | 0.049 µg/mL | 0.007 µg/mL | 0.007 µg/mL | –
CC(=O)CC(=O)c1cn(C2CC2)c2c(Cl)c(N3CCC(N)C3)c(F)cc2c1=O (stereo not drawn) [Example 37, 1-cyclopropyl-6-fluoro-8-chloro-7-(3-aminopyrrolidin-1-yl)-3-(2-acetoacetyl)-1,4-dihydro-4-oxoquinoline hydrochloride] | 0.781 µg/mL | 1.56 µg/mL | 0.195 µg/mL | 0.391 µg/mL | 0.098 µg/mL | 0.391 µg/mL | 0.195 µg/mL | 1.56 µg/mL | 3.12 µg/mL | 0.781 µg/mL | 0.781 µg/mL | 3.12 µg/mL | 0.195 µg/mL | 1.56 µg/mL | 3.12 µg/mL | 0.195 µg/mL | 0.781 µg/mL | 0.781 µg/mL | 0.195 µg/mL | 0.391 µg/mL | –
NC1CCN(c2c(F)cc3c(=O)c(C(=O)CC(=O)C(F)(F)F)cn(C4CC4)c3c2Cl)C1 (stereo not drawn) [Example 38, 1-cyclopropyl-6-fluoro-8-chloro-7-(3-aminopyrrolidin-1-yl)-3-(2-trifluoroacetoacetyl)-1,4-dihydro-4-oxoquinoline hydrochloride] | 0.195 µg/mL | 1.56 µg/mL | 0.049 µg/mL | 0.098 µg/mL | 0.195 µg/mL | 0.098 µg/mL | 0.049 µg/mL | 1.56 µg/mL | 0.781 µg/mL | 0.781 µg/mL | 0.391 µg/mL | 0.781 µg/mL | 0.098 µg/mL | 1.56 µg/mL | – | 0.098 µg/mL | 0.391 µg/mL | 0.391 µg/mL | 0.025 µg/mL | 0.195 µg/mL | MIC ([15]; Streptococcus pyogenes, 77A, 18 h): 0.781 µg/mL
CCOC(=O)C(C#N)C(=O)c1cn(C2CC2)c2c(Cl)c(N3CCC(N)C3)c(F)cc2c1=O (stereo not drawn) [Example 39, 1-cyclopropyl-6-fluoro-8-chloro-7-(3-aminopyrrolidin-1-yl)-3-(2-cyano-2-ethoxycarbonylacetyl)-1,4-dihydro-4-oxoquinoline hydrochloride] | 6.25 µg/mL | 12.5 µg/mL | – | 0.781 µg/mL | 0.391 µg/mL | – | 0.049 µg/mL | 12.5 µg/mL | 12.5 µg/mL | 1.56 µg/mL | 1.56 µg/mL | 6.25 µg/mL | 0.781 µg/mL | 25 µg/mL | 6.25 µg/mL | 0.391 µg/mL | 3.12 µg/mL | 1.56 µg/mL | 0.049 µg/mL | 0.049 µg/mL | MIC ([3]; TYPHIMURIUM, 18 h): 0.391 µg/mL; MIC ([6]; Escherichia coli DC2, Muller-Hinton agar, 37° C., 18 hours, read-out: MIC): 3.12 µg/mL
